The text below walks through data of PMC4229098, “Alzheimer's Therapeutics Targeting Amyloid Beta 1–42 Oligomers I: Abeta 42 Oligomer Binding to Specific Neuronal Receptors Is Displaced by Drug Candidates That Improve Cognitive Deficits” (PLoS ONE, 2014).

Data set [1] has as its system mature primary hippocampal and cortical cultures. The experiment in a line: Membrane trafficking assay (MTT formazan exocytosis).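 Further: mixed neuron and glia cultures from E18 Sprague-Dawley rat embryos, grown 3 weeks in 384-well plates, labeled vesicles quantified by imaging or spectrophotometry as percent of vehicle-treated wells.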 The data set is classed as cell-based, rat.
Experimental: Vesicular trafficking was measured using an adaptation of a method by Liu and Schubert [51]. […] Tetrazolium salts (3-(4,5-dimethylthiazol-2yl)-2,5diphenyl tetrazolium bromide, Roche Molecular Biochemicals) were added to a final concentration of 0.75 mM and incubated at 37°C for 60–90 min. Vesicular formazan remaining in cells was quantified by absorbance spectrometry (590 nm with 690 nm subtracted) following extraction with 1.6% Tween-20. All compounds were tested in quadruplicate wells for each concentration in at least 8 replicate experiments with data from all experiments pooled for analysis with means ± S.E.M.
The amount of labeled vesicles in treated cells is quantified by automated image processing or by spectrophotometry following extraction from cells and is calculated as a percentage of vehicle-treated values. Control wells consist of Abeta and vehicle treatment without test compounds. […] In the prevention configuration of this assay, compounds are added to neuronal cultures first, followed by oligomers. Compounds are also tested in the treatment configuration of this assay in which oligomers are added to the cultures first, followed by compound addition.
Data set [2] deals with neuronal synaptic puncta in hippocampal/cortical cultures. The experiment in a line: Abeta binding assay, neurons (immunofluorescence of neurite puncta). Also noted: species or system rat.
Experimental: Alternatively, displacement of prebound oligomers was evaluated by adding oligomers 60 min prior to the addition of compounds, followed by additional 30 minutes incubation. Cells were fixed with 3.75% formaldehyde for 15 min, blocked with 5% normal goat serum and 0.5% Triton X-100 and incubated with primary antibodies for Abeta (1 µg/ml 6E10 or 4G8, Covance catalog numbers SIG-39320 and SIG-39330, respectively), MAP-2 (0.2 µg/ml Chemicon), Synaptophysin-1 (1 µg/ml, Anaspec), glial fibrillary acidic protein (GFAP, 1 µg/ml, Thermo-Fisher) and fluorescently labeled secondary antibodies (2 µg/ml, Invitrogen). Images were acquired on a Cellomics VTi automated microscope with a 20X, 0.75 NA objective and analyzed using ThermoFisher/Cellomics Neuronal Profiling bioapplication set to measure punctate labeling of Abeta and synaptophysin-1 along MAP-2 labeled neurites. For each replicate experiment, at least 100 neurons were sampled from 4 replicate wells for each experimental condition (400 to 500 neurons per experimental condition). […] All data presented for Abeta binding to neurons represents total intensity of Abeta label in neurite spots per neuron, in relative fluorescent units (RFU), unless otherwise indicated.
Data set [3] has as its system synaptophysin-immunopositive puncta along MAP2-labeled neurites. The experiment in a line: Synapse counting assay. The conditions noted are these: for loss of synaptophysin-immunoreactive puncta: synthetic Abeta oligomers vs vehicle, 24 hrs. The data set is classed as cell-based, rat. The protocol: Sprague-Dawley rats, 18 days pregnant, were euthanized by CO2 asphyxiation followed by cervical dislocation, and embryos were removed. Hippocampus and cortical tissue from the embryo brains were digested in 2.5% Trypsin (Life Technologies) to dissociate cells. Isolated cells were plated at a density of 4.6×10^4 cells per cm^2 in 384-well poly-D Lysine coated plates (Greiner) in Neurobasal Media (Life Technologies) supplemented with B27 (Life Technologies), Glutamax (Life Technologies) and antibiotics (penicillin, 50 units/ml and streptomycin 50 µg/ml, Life Technologies). Cultures were maintained at 37°C in 5% CO2 with weekly media change for 3 weeks prior to experimentation. These mixed cultures of hippocampal plus cortical neurons and glia were used for all of the in vitro experiments described.
Cultures were treated with compounds for 60 minutes prior to addition of 6 µM (maximum from trafficking dose-response curve) of synthetic Abeta 1–42 oligomers and incubated for 24 hrs. Cultures were fixed and immunofluorescently labeled and imaged as for the Abeta binding assay. The ThermoFisher/Cellomics Neuronal Profiling bioapplication was used to count synaptophysin-immunopositive puncta along MAP2-labeled neurites. The number of puncta per unit length of neurites was used to determine effects of treatments. To attain statistical power of 80% and a p value of less than 0.05 (determined using G*Power software), twenty replicate wells were treated per experiment plate and compared to control wells on the same plate and experiments were repeated four times.

Another data set has as its target T1, sigma-2/PGRMC1 receptor (Homo sapiens, UniProt Q5BJF2).
T1 construct: endogenous in cells; host or cells: human Jurkat cells (membranes)
The experiment in a line: Sigma-2 radioligand binding. The conditions noted are these: radioligand competition binding; read-out: Ki, binding affinity at the sigma-2/PGRMC1 receptor. The protocol:
Radioligand competition assays were performed in membranes from human Jurkat cells using 5 nM [^3H]1,3-di(2-tolyl) guanidine in the presence of 1 µM (+)-pentazocine with 10 µM haloperidol to define non-specific binding.
A general note: Loss of bound radioactivity is the signal in a displacement assay; it reports binding, not function.

A short description of data set [4]: Brain concentration of compounds (LC/MS/MS). In kind it is in vivo, mice. The conditions noted are these: hAPP Swe/Ldn transgenic, mouse, 24 h after last dose, read-out: Compound Concentration in brain. An excerpt:
(§1) All procedures were approved by the Institutional Animal Care and Use and Committee at Columbia University and Stanford University and were in compliance with the Office of Laboratory Animal Welfare and the Guide for the Care and Use of Laboratory Animals, Eighth Edition. Behavioral testing of wild-type, 3–4 month old, male, C57/BL6 mice, injected bilaterally into their hippocampus with Abeta oligomers and testing in the fear conditioning task was done according to published methods. Animals were anesthetized with […] Avertin prior to implantation of cannulas into the hippocampus. Testing of transgenic hAPP Swedish/London mice in the Morris water maze or fear conditioning tasks was done according to published methods, [38]. To measure brain concentration of drugs, brains were homogenized in 1 ml PBS per gram of brain tissue using a handheld homogenizer. Brain homogenate was then extracted with three volumes of ice cold methanol on ice for 15 minutes and centrifuged for 15 min. The supernates were analyzed by LC/MS/MS. Samples were compared to a calibration curve prepared in a similar manner by spiking blank control homogenate with standards prepared in DMSO and then extracted as above. At the end of all behavioral testing, animals were euthanized with CO2 followed by cervical dislocation.

The test system of data set [5] is mouse models of Alzheimer's disease. The experiment in a line: Behavioral tests (behavioral efficacy summary). In kind it is in vivo, mice. Also noted: key to Measured efficacy: statistically significant improvement (+); no significant improvement (-).
Text: as §1

Data set [6] has as its system hAPP Swe/Ldn transgenic mice. The experiment in a line: Morris water maze probe trial. The data set is classed as in vivo. The conditions noted are these: 42 days.
Text: as §1

The subject of data set [7] is hAPP Swe/Ldn transgenic mice. The data set can be described thus: Contextual fear conditioning in transgenic mice. In kind it is in vivo. The conditions noted are these: 30 mg/kg/day p.o., 5.5 months, 9 month old males.
Text: as §1

A further data set relates to glia. The experiment in a line: Abeta binding assay, glia cell bodies. Set-up: species or system rat.
Data set [8] concerns C57/BL6 mice injected with Abeta oligomers. The data set can be described thus: Contextual fear conditioning after intrahippocampal Abeta oligomer injection. The data set is classed as in vivo. To be noted: injected into dorsal hippocampi 24 hours prior to testing.
Text: as §1

Data set [9] deals with hippocampal/cortical cultures. The data set can be described thus: Internalization of Abeta oligomers (immunolabeling with/without detergent). In kind it is cell-based, rat. The conditions noted are these: for bound Abeta at the surface: 1 µM. Here is the method:
Supplementary file pone.0111898.s002.tif: Figure S2 Internalization of Abeta oligomers. After treatment with Abeta oligomers (1 µM) for 1 hr (A, B) or 2 hr (C, D), cultures were fixed and immunolabeled for Abeta either in the presence of 0.05% Triton X-100 to permeabilize cells to immunoglobulins and measure all Abeta present (A, C) or in the absence of this detergent (B, D) to detect only Abeta bound at the cell surface. […] (TIF) Click here for additional data file.

Several values for one entry are separate records, joined by “and”; a condition that tells them apart may be missing. Equal values may be shown once. Read-outs that look alike come from different tables or passages of the source.

T1 sequence (Q5BJF2 whole entry): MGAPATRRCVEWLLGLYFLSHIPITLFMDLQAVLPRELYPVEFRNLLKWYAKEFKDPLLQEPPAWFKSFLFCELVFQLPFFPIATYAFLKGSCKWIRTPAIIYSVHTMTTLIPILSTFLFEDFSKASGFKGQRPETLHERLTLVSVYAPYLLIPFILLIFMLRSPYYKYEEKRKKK
Experimental for glia: Measurements of Abeta binding to glia were made with a separate algorithm (ThermoFisher/Cellomics Target Activation bioapplication) which identifies cells lacking MAP2 labeling. Glial cells were analyzed after separating them based on their nuclear morphology as determined by the characteristics of their DAPI labeling, as described in Fig. S1. […]
The morphology of MAP-2 negative glial nuclei labeled with DAPI was analyzed via automated image processing. […]

For `C[C@H](CCc1ccc(Cl)cc1)NCc1ccc(C(F)(F)F)cc1` [CT01346], the EC50 in [1] (Rattus norvegicus, 1 h, compound added 1 hr after Abeta oligomers, log value, read-out: Treatment Log EC50 ± SE (converted)) is 8.71 µM; in data set [1] (Rattus norvegicus, 1 h, compound added 1 hr after synthetic Abeta oligomers, read-out: Treatment EC50), 8.7 µM; in data set [1] (Rattus norvegicus, compound added 1 hr prior to Abeta oligomers, log value, read-out: Prevention Log EC50 ± SE (converted)) it was 9.33 µM; in data set [1] (Rattus norvegicus, compound added 1 hr prior to synthetic Abeta oligomers, read-out: Prevention EC50), 9.4 µM. Besides, in [1] (against synthetic oligomers), the Schild slope was 1. Moreover, in data set [2] (15 µM compound added 1 hour after oligomers 0.5 µM, within 1 hour), the “displacement of Abeta oligomers” value was found to be 93±13%. Also, the “prevention of binding of Abeta oligomers to neuronal cultures” value in data set [2] (15 µM compound one hour prior to synthetic Abeta oligomers 0.5 µM) was 93%±4%. In addition, in [3] (Table S1), the “Affects Synapse density in the absence of Aβ” value is recorded as “No”. The Ki on sigma-2/PGRMC1 receptor amounted to 0.05 µM. In addition, the concentration at 24 h came out at 54 nM in data set [4] (10 mg/kg/day once daily oral gavage) and 330 nM in data set [4] (30 mg/kg/day once daily oral gavage). For the same molecule, the Measured efficacy entry in data set [5] (10 mg/kg/day oral gavage) is “-”; in [5] (30 mg/kg/day oral gavage), “+”. For the same molecule, in [5] (Table S1), the Behavioral efficacy result is given as “Yes”. Moreover, the “spatial memory retrieval performance, transgenic animals” value in [6] (30 mg/kg/day oral, eleven month-old females) is on record as “significantly improves spatial memory retrieval performance”. Also, the “behavior of treated nontransgenic animals” value in data set [6] (30 mg/kg/day p.o.) is given as “behaved similarly to vehicle-treated wild-type animals”. For the same molecule, the “contextual fear memory performance” value in [7] is “significantly improved fear memory performance”.

As to “synthetic oligomers (high concentration): synthetic human Abeta 1–42 oligomerized at 100 µM, 4°C, 24 hr; contains monomer [reference compound]”, the “Treatment duration for maximum response” value in data set [1] (Abeta preparation dosed alone) turned out to be 24 h. Further, the EC50 turned out to be 0.462 ± 0.056 µM in [1] (preparation dosed alone, listed as synthetic Abeta oligomers, read-out: EC50 of Abeta preparation) and 0.46 µM in data set [1] (preparation dosed alone, read-out: EC50 of Abeta preparation). Besides, the “bound puncta colocalizing with synaptophysin presynaptic terminals” value in data set [2] (440 nM total Abeta, 60 minutes) is 37%±3%. Besides, the Kd was 0.518 µM in [2] (60 min treatment, read-out: Kd Site 1 (high affinity), neurons synaptic puncta); above 1000 µM in the data set with glia (non-saturable site, read-out: Kd Site 2, glia cell bodies with condensed/asymmetric nuclear morphology); 0.289 µM in the data set with glia (read-out: Kd Site 1 (high affinity), glia cell bodies with condensed/asymmetric nuclear morphology). Also, the “loss of synaptophysin-immunoreactive puncta” value in data set [3] (listed as Oligomers) was 18%±2; in data set [3] (listed as synthetic Abeta oligomers), 18%. Also, in [8], the “effect of Abeta oligomers on contextual fear memory” value is “cause a deficit in contextual fear conditioning-dependent associative memory”. Besides, the “bound Abeta at the surface” value in data set [9] (1 hr exposure) is reported as 96%±8%; in [9] (2 hrs exposure) it was 73%±3%. Moreover, the “bound Abeta internalized” value in data set [9] (2 hr exposure, listed as Abeta oligomers) was 27%±8% and 27±8%.
